Measurements reported in patent US11713307B2, “Heteroaryl-biphenyl amides for the treatment of PD-L1 diseases” (CHEMOCENTRYX, INC., priority 2019, dated 2023).

Molecular target: human PD-L1 (Homo sapiens (Human), UniProt Q9NZQ7)
Assay: Enzyme-Linked Immunosorbent Assay—ELISA (PD-1/PD-L1 binding)
Conditions: plates coated with human PD-L1; Human PD-1 and biotin added; absorbance at 450 nm
Description: 96 Well plates were coated with 1 μg/mL of human PD-L1 (obtained from R&D) in PBS overnight at 4° C. The wells were then blocked with 2% BSA in PBS (W/V) with 0.05% TWEEN-20 for 1 hour at 37° C. The plates were washed 3 times with PBS/0.05% TWEEN-20 and the compounds were serial diluted (1:5) in dilution medium and added to the ELISA plates. Human PD-1 and biotin 0.3 μg/mL (ACRO Biosystems) were added and incubated for 1 hour at 37° C. then washed 3 times with PBS/0.05% TWEEN-20. A second block was performed with 2% BSA in PBS (W/V)/0.05% TWEEN-20 for 10 min at 37° C. and the plates were washed 3 times with PBS/0.05% TWEEN-20. Streptavidin-HRP was added for 1 hour at 37° C. then the plates were washed 3 times with PBS/0.05% TWEEN-20. TMB substrate was added and reacted for 20 min at 37° C. A stop solution (2 N aqueous H2SO4) was added. The absorbance was read at 450 nm using a micro-plate spectrophotometer. The results are shown in Table 1: IC50 values are provided as follows: from 1000 to 10,000 nM (+); from 10 up to 1000 nM (++); less than 10 nM (+++).

human PD-L1, sequence (Q9NZQ7 19-239): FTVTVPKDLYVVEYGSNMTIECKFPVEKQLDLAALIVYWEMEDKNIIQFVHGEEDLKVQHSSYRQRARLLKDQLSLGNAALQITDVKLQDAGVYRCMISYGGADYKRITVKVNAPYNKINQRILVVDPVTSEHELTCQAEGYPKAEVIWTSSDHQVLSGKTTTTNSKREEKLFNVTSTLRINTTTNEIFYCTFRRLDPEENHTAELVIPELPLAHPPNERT

SMILES | IC50
COc1nc(-c2cccc(-c3cccc(NC(=O)c4cn(C)c(=O)n(C)c4=O)c3C)c2Cl)ccc1CN[C@@H]1CCCC[C@@H]1O [Compound 1.017] | < 10 nM
COc1nc(-c2cccc(-c3cccc(NC(=O)c4cn(C)c(=O)n(C)c4=O)c3C)c2Cl)ccc1CN[C@@H]1CCC[C@@H]1O [Compound 1.011] | < 10 nM
COc1nc(-c2cccc(-c3cccc(NC(=O)c4cn(C)c(=O)n(C)c4=O)c3Cl)c2Cl)ccc1CN1CC[C@@](C)(O)C1 [Compound 1.027] | < 10 nM
COc1nc(-c2cccc(-c3cccc(NC(=O)c4cn(C)c(=O)n(C)c4=O)c3Cl)c2Cl)ccc1CN1CC(C)(C(=O)O)C1 [Compound 1.085] | < 10 nM
COc1nc(-c2cccc(-c3cccc(NC(=O)c4cn(C)c(=O)n(C)c4=O)c3C)c2Cl)ccc1CNC(C)(C)CCO [Compound 1.050] | < 10 nM
COc1nc(-c2cccc(-c3cccc(NC(=O)c4cn(C)c(=O)n(C)c4=O)c3Cl)c2Cl)ccc1CNCCCO [Compound 1.036] | < 10 nM
COc1nc(-c2cccc(-c3cccc(NC(=O)c4cn(C)c(=O)n(C)c4=O)c3Cl)c2Cl)ccc1CNC[C@H]1CCC(=O)N1 [Compound 1.066] | < 10 nM
COc1nc(-c2cccc(-c3cccc(NC(=O)c4cn(C)c(=O)n(C)c4=O)c3Cl)c2Cl)ccc1CNCC1(O)CC1 [Compound 1.035] | < 10 nM
COc1nc(-c2cccc(-c3cccc(NC(=O)c4cn(C)c(=O)n(C)c4=O)c3Cl)c2F)ccc1CN[C@@H]1CCOC[C@@H]1O [Compound 1.018] | < 10 nM
COc1nc(-c2cccc(-c3cccc(NC(=O)c4nn(C)c(=O)n(C)c4=O)c3Cl)c2Cl)ccc1CNC[C@@H]1CCC(=O)N1 [Compound 1.064] | < 10 nM
COc1cc(-c2cccc(-c3cccc(NC(=O)c4cn(C)c(=O)n(C)c4=O)c3Cl)c2Cl)ncc1CN[C@@H]1CCOC[C@@H]1O [Compound 1.097] | < 10 nM
COc1nc(-c2cccc(-c3cccc(NC(=O)c4cn(C)c(=O)n(C)c4=O)c3C)c2Cl)ccc1CN(C)CCO [Compound 1.052] | < 10 nM
COc1nc(-c2cccc(-c3cccc(NC(=O)c4cn(C)c(=O)n(C)c4=O)c3Cl)c2Cl)cnc1CN1CC2(CCNC2=O)C1 [Compound 1.102] | < 10 nM
COc1nc(-c2cccc(-c3cccc(NC(=O)c4cn(C)c(=O)n(C)c4=O)c3C)c2Cl)ccc1CN[C@H](C)CO [Compound 1.020] | < 10 nM
COc1cc(-c2cccc(-c3cccc(NC(=O)c4cn(C)c(=O)n(C)c4=O)c3Cl)c2Cl)ncc1CNC[C@@H]1CCC(=O)N1 [Compound 1.093] | < 10 nM
COc1nc(-c2cccc(-c3cccc(NC(=O)c4cn(C)c(=O)n(C)c4=O)c3C)c2Cl)ccc1CN1CC2(CNC(=O)N2)C1 [Compound 1.025] | < 10 nM
COc1nc(-c2cccc(-c3cccc(NC(=O)c4cn(C)c(=O)n(C)c4=O)c3Cl)c2C)ccc1CNC[C@@H]1CCC(=O)N1 [Compound 1.068] | < 10 nM
COc1nc(-c2cccc(-c3cccc(NC(=O)c4cn(C)c(=O)n(C)c4=O)c3C)c2Cl)ccc1CN1CC[C@@](C)(O)C1 [Compound 1.048] | < 10 nM
COc1cc(-c2cccc(-c3cccc(NC(=O)c4cn(C)c(=O)n(C)c4=O)c3C)c2C)cnc1CNCCO [Compound 1.010] | < 10 nM
COc1nc(-c2cccc(-c3cccc(NC(=O)c4cn(C)c(=O)n(C)c4=O)c3Cl)c2Cl)ccc1CN1CC(C(=O)O)C1 [Compound 1.084] | < 10 nM
COc1nc(-c2cccc(-c3cccc(NC(=O)c4cn(C)c(=O)n(C)c4=O)c3C)c2Cl)ccc1CN[C@H]1CCOC[C@@H]1O [Compound 1.013] | < 10 nM
COc1nc(-c2cccc(-c3cccc(NC(=O)c4cn(C)c(=O)n(C)c4=O)c3C)c2C#N)ccc1CN[C@@H]1CCOC[C@@H]1O [Compound 1.026] | < 10 nM
COc1nc(-c2cccc(-c3cccc(NC(=O)c4cn(C)c(=O)n(C)c4=O)c3C)c2Cl)ccc1CNC[C@@H]1CCC(=O)N1C [Compound 1.043] | < 10 nM
COc1nc(-c2cccc(-c3cccc(NC(=O)c4cn(C)c(=O)n(C)c4=O)c3C)c2Cl)ccc1CNCC(C)(C)CO [Compound 1.049] | < 10 nM
COc1nc(-c2cccc(-c3cccc(NC(=O)c4cn(C)c(=O)n(C)c4=O)c3Cl)c2Cl)ccc1CN(C)C[C@@H]1CCC(=O)N1 [Compound 1.058] | 10 to 1000 nM
CCc1nc(-c2cccc(-c3cccc(NC(=O)c4cn(C)c(=O)n(C)c4=O)c3Cl)c2Cl)cnc1CNC[C@@H]1CCC(=O)N1 [Compound 1.077] | < 10 nM
COc1nc(-c2cccc(-c3cccc(NC(=O)c4cn(C)c(=O)n(C)c4=O)c3C)c2F)ccc1CN[C@@H]1CCOC[C@@H]1O [Compound 1.024] | < 10 nM

SMILES | IC50
COc1nc(-c2cccc(-c3cccc(NC(=O)c4cn(C)c(=O)n(C)c4=O)c3Cl)c2Cl)cnc1CN[C@@H]1CCC(=O)NC1 [Compound 1.001] | < 10 nM
COc1nc(-c2cccc(-c3cccc(NC(=O)c4cn(C)c(=O)n(C)c4=O)c3C)c2Cl)ccc1CNC[C@@H]1CC(C)(C)C(=O)N1 [Compound 1.016] | < 10 nM
CCc1nc(-c2cccc(-c3cccc(NC(=O)c4cn(C)c(=O)n(C)c4=O)c3Cl)c2Cl)ccc1CNC[C@@H]1CCC(=O)N1 [Compound 1.076] | < 10 nM
COc1nc(-c2cccc(-c3cccc(NC(=O)c4cn(C)c(=O)n(C)c4=O)c3C)c2Cl)ccc1CNC(C)C [Compound 1.037] | < 10 nM
COc1nc(-c2cccc(-c3cccc(NC(=O)c4cn(C)c(=O)n(C)c4=O)c3Cl)c2Cl)ccc1CN1CC(O)C1 [Compound 1.090] | < 10 nM
COc1nc(-c2cccc(-c3cccc(NC(=O)c4cn(C)c(=O)n(C)c4=O)c3Cl)c2Cl)cnc1CN1CC(C)(C(=O)O)C1 [Compound 1.099] | < 10 nM
COc1nc(-c2cccc(-c3cccc(NC(=O)c4cn(C)c(=O)n(C)c4=O)c3C)c2Cl)cnc1CN[C@@H]1CCOC[C@@H]1O [Compound 1.078] | < 10 nM
COc1nc(-c2cccc(-c3cccc(NC(=O)c4cn(C)c(=O)n(C)c4=O)c3C)c2Cl)ccc1CNCCC(C)(C)O [Compound 1.023] | < 10 nM
COc1nc(-c2cccc(-c3cccc(NC(=O)c4cn(C)c(=O)n(C)c4=O)c3Cl)c2Cl)cnc1CN1CCCC[C@H]1C(=O)O [Compound 1.091] | < 10 nM
COc1nc(-c2cccc(-c3cccc(NC(=O)c4cn(C)c(=O)n(C)c4=O)c3C)c2Cl)ccc1CN[C@@H]1CCOC[C@H]1O [Compound 1.014] | < 10 nM
COc1nc(-c2cccc(-c3cccc(NC(=O)c4cn(C)c(=O)n(C)c4=O)c3)c2Cl)ccc1CNC[C@@H]1CCC(=O)N1 [Compound 1.061] | < 10 nM
COc1nc(-c2cccc(-c3cccc(NC(=O)c4cn(C)c(=O)n(C)c4=O)c3Cl)c2Cl)ncc1CNC[C@@H]1CCC(=O)N1 [Compound 1.081] | < 10 nM
COc1nc(-c2cccc(-c3cccc(NC(=O)c4cn(C)c(=O)n(C)c4=O)c3C)c2Cl)ccc1CNCC(C)(C)C(N)=O [Compound 1.040] | < 10 nM
COc1nc(-c2cccc(-c3cccc(NC(=O)c4cn(C)c(=O)n(C)c4=O)c3Cl)c2Cl)ccc1CN1CC[C@@H](C(=O)O)C1 [Compound 1.074] | < 10 nM
COc1nc(-c2cccc(-c3cccc(NC(=O)c4cn(C)c(=O)n(C)c4=O)c3Cl)c2F)ccc1CNC[C@@H]1CCC(=O)N1 [Compound 1.063] | < 10 nM
CNCc1ccc(-c2cccc(-c3cccc(NC(=O)c4cn(C)c(=O)n(C)c4=O)c3C)c2Cl)nc1OC [Compound 1.031] | < 10 nM
COc1nc(-c2cccc(-c3cccc(NC(=O)c4cn(C)c(=O)n(C)c4=O)c3C)c2Cl)ccc1CN[C@@H](C)CO [Compound 1.021] | < 10 nM
COc1nc(-c2cccc(-c3cccc(NC(=O)c4cn(C)c(=O)n(C)c4=O)c3C)c2Cl)ccc1CN1CC(C(=O)O)C1 [Compound 1.082] | < 10 nM
COc1nc(-c2cccc(-c3cccc(NC(=O)c4cn(C)c(=O)n(C)c4=O)c3C)c2Cl)ccc1CN[C@@H]1CNC(=O)C1 [Compound 1.007] | < 10 nM
COc1nc(-c2cccc(-c3cccc(NC(=O)c4cn(C)c(=O)n(C)c4=O)c3C)c2Cl)ccc1CN[C@@H]1COC[C@@H]1O [Compound 1.012] | < 10 nM
COc1nc(-c2cccc(-c3cccc(NC(=O)c4cn(C)c(=O)n(C)c4=O)c3Cl)c2Cl)cnc1CNC[C@@H]1CCC(=O)N1 [Compound 1.003] | < 10 nM
COc1nc(-c2cccc(-c3cccc(NC(=O)c4cn(C)c(=O)n(C)c4=O)c3C)c2Cl)ccc1CNC[C@H](C)O [Compound 1.029] | < 10 nM
COc1nc(-c2cccc(-c3cccc(NC(=O)c4cn(C)c(=O)n(C)c4=O)c3Cl)c2Cl)ncc1CN[C@@H]1CCOC[C@@H]1O [Compound 1.089] | < 10 nM
COc1nc(-c2cccc(-c3cccc(NC(=O)c4cn(C)c(=O)n(C)c4=O)c3C)c2Cl)ccc1CN1CC(C)(O)C1 [Compound 1.038] | < 10 nM
COc1nc(-c2cccc(-c3cccc(NC(=O)c4cn(C)c(=O)n(C)c4=O)c3Cl)c2Cl)ccc1CN[C@@H]1CCOC[C@@H]1O [Compound 1.087] | < 10 nM
COc1nc(-c2cccc(-c3cccc(NC(=O)c4cn(C)c(=O)n(C)c4=O)c3Cl)c2Cl)ccc1CNCC(C)(C)C(N)=O [Compound 1.057] | < 10 nM
COc1nc(-c2cccc(-c3cccc(NC(=O)c4cn(C)c(=O)n(C)c4=O)c3Cl)c2)ccc1CNC[C@@H]1CCC(=O)N1 [Compound 1.067] | < 10 nM
